This note sets out measurements from patent US20210238162A1, “CHEMICAL COMPOUNDS” (GlaxoSmithKline Intellectual Property Development Limited, priority 2015, published 2021).

Counter-ions that a name gives are not always drawn. Like-named read-outs stand apart in the source and are kept apart here.

This assay deals with T1, haematopoietic prostaglandin D synthase (H-PGDS) (Homo sapiens, UniProt O60760).
T1 construct: Full length human H-PGDS cDNA (Invitrogen Ultimate ORF IOH13026) was amplified by PCR; made in house; host or cells: E. coli BL21 (DE3*), vector pET22b+
In words: H-PGDS RapidFire High Throughput Mass Spectrometry Assay. The class given is biochemical. In outline:
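PGH2 (~10 μM burst) generated in situ from arachidonic acid by FLAG-tagged human COX-2 (Sf9-expressed), then converted to PGD2 by full-length human His-tagged H-PGDS from E. coli. PGD2 and PGF2α (substrate surrogate) quantified by RapidFire SPE-triple quadrupole MS; percent conversion calculated.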

[1] abbreviates: H-PGDS RapidFire MS assay, mean pIC50, read-out: Potency Range (mean pIC50) (converted).
[2] abbreviates: in at least one experimental run, read-out: H-PGDS pIC50 value (converted).

T1 sequence (O60760 whole entry): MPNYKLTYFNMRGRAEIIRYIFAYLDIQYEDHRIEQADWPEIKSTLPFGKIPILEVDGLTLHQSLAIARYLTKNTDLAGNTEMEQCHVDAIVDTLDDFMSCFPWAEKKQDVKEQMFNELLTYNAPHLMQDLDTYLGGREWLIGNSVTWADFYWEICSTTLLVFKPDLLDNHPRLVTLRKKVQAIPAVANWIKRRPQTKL

For the molecule `CC(C)(O)[C@H]1CC[C@H](NC(=O)c2cnc3c4c(ccc3c2)CCO4)CC1` [Example 113, N-(trans-4-(2-Hydroxypropan-2-yl)cyclohexyl)-2,3-dihydrofuro[3,2-h]quinoline-7-carboxamide], the IC50 under setting [1] is 10 to 79.4 nM.

Consider `C[C@]1(O)C[C@@H](NC(=O)c2cnc3cc(C4CCC4)c(Cl)cc3c2)C1` [Example 180, 6-Chloro-7-cyclobutyl-N-((1s,3s)-3-hydroxy-3-methylcyclobutyl)quinoline-3-carboxamide], for which the IC50 under setting [1] was 10 to 79.4 nM.

Consider `C[C@@H](NC[C@H]1CC[C@H](NC(=O)c2cnc3cc(OC(F)F)c(F)cc3c2)CC1)C(F)F` [Example 99, 7-(Difluoromethoxy)-N-(trans-4-((((R)-1,1-difluoropropan-2-yl)amino)methyl)cyclohexyl)-6-fluoroquinoline-3-carboxamide], for which the IC50 under setting [1] was 10 to 79.4 nM.

`O=C(N[C@H]1CCN(CC2CCCC2)C1=O)c1cnc2cc(OC(F)F)c(F)cc2c1` [Example 78, (S)—N-(1-(Cyclopentylmethyl)-2-oxopyrrolidin-3-yl)-7-(difluoromethoxy)-6-fluoroquinoline-3-carboxamide]: under setting [1], the IC50 is 10 to 79.4 nM.

For `O=C(N[C@H]1CC[C@H](OCC2(O)CC2)CC1)c1cnc2cc(OC(F)F)c(Cl)cc2c1` [Example 123, 6-Chloro-7-(difluoromethoxy)-N-(trans-4-((1-hydroxycyclopropyl)methoxy)cyclohexyl)quinoline-3-carboxamide], the IC50 under setting [1] was under 10 nM.

Regarding `O=C(N[C@H]1CC[C@@](O)(C(F)(F)F)CC1)c1cnc2cc(OC(F)F)c(Cl)cc2c1` [Example 227, 6-Chloro-7-(difluoromethoxy)-N-((trans)-4-hydroxy-4-(trifluoromethyl)cyclohexyl)quinoline-3-carboxamide], under setting [1], the IC50 was 10 to 79.4 nM.

`CNc1cc2ncc(C(=O)N[C@H]3CC[C@H](C(C)(C)O)CC3)cc2cc1Cl` [Example 209]: the IC50 under setting [1] is under 10 nM.

For the molecule `O=C(N[C@H]1CC[C@](O)(C(F)(F)F)CC1)c1cnc2cc(OC(F)F)c(Cl)cc2c1` [Example 223, 6-Chloro-7-(difluoromethoxy)-N-((cis)-4-hydroxy-4-(trifluoromethyl)cyclohexyl)quinoline-3-carboxamide], the IC50 under setting [1] is 10 to 79.4 nM.

As to `O=C1CC(NC(=O)c2cnc3cc(OC(F)F)c(Cl)cc3c2)C1` [Example 142, 6-Chloro-7-(difluoromethoxy)-N-(3-oxocyclobutyl)quinoline-3-carboxamide], the IC50 runs as follows: under setting [1], 10 to 79.4 nM; under setting [2], 39.8 nM.

For `O=C(N[C@H]1CC[C@](O)(C(F)F)CC1)c1cnc2cc(OC(F)F)c(Cl)cc2c1` [Example 233, 6-Chloro-7-(difluoromethoxy)-N-((1s,4s)-4-(difluoromethyl)-4-hydroxycyclohexyl)quinoline-3-carboxamide], the IC50 under setting [1] is 10 to 79.4 nM.

Regarding `O=C(N[C@H]1CC[C@H](N2CC(O)(C(F)(F)F)C2)CC1)c1cnc2cc(OC(F)F)c(F)cc2c1` [Example 92, 7-(Difluoromethoxy)-6-fluoro-N-(trans-4-(3-hydroxy-3-(trifluoromethyl)azetidin-1-yl)cyclohexyl)quinoline-3-carboxamide], the IC50 under setting [1] was 10 to 79.4 nM.

As for `CC(C)(O)[C@H]1CC[C@H](NC(=O)c2cnc3cc(N4CC(F)(F)C4)c(F)cc3c2)CC1` [Example 177, 7-(3,3-Difluoroazetidin-1-yl)-6-fluoro-N-(trans-4-(2-hydroxypropan-2-yl)cyclohexyl)quinoline-3-carboxamide], the IC50 was 10 to 79.4 nM under setting [1] and 20 nM under setting [2].

Turning to `C[C@]1(O)C[C@@H](NC(=O)c2cnc3cc(OC(F)F)c(Br)cc3c2)C1` [Example 157, 6-Bromo-7-(difluoromethoxy)-N-((1s,3s)-3-hydroxy-3-methylcyclobutyl)quinoline-3-carboxamide], the IC50 under setting [1] was 10 to 79.4 nM.

Consider `C[C@H]1CCN1c1cc2ncc(C(=O)N[C@H]3CCNC3=O)cc2cc1Cl` [Example 188, 6-Chloro-7-((S)-2-methylazetidin-1-yl)-N—((S)-2-oxopyrrolidin-3-yl)quinoline-3-carboxamide], for which, under setting [1], the IC50 is 10 to 79.4 nM.

Regarding `CC1CCN1c1cc2ncc(C(=O)N[C@H]3CCNC3=O)cc2cc1F` (mixture of isomers) [Example 171, 6-Fluoro-7-(2-methylazetidin-1-yl)-N—((S)-2-oxopyrrolidin-3-yl)quinoline-3-carboxamide], under setting [1], the IC50 was 10 to 79.4 nM.

Consider `CC1CN(c2cc3ncc(C(=O)N[C@H]4CC[C@H](C(C)(C)O)CC4)cc3cc2F)C1` [Example 183, 6-Fluoro-N-(trans-4-(2-hydroxypropan-2-yl)cyclohexyl)-7-(3-methylazetidin-1-yl)quinoline-3-carboxamide], for which the IC50 under setting [1] was 10 to 79.4 nM.

Regarding `CC(N[C@H]1CC[C@H](NC(=O)c2cnc3cc(OC(F)F)c(F)cc3c2)CC1)C(F)F` (stereo partly drawn) [Example 67, 7-(Difluoromethoxy)-N-(trans-4-((1,1-difluoropropan-2-yl)amino)cyclohexyl)-6-fluoroquinoline-3-carboxamide], under setting [1], the IC50 was 10 to 79.4 nM.

Take `CC(O)(CO[C@H]1CC[C@H](NC(=O)c2cnc3cc(OC(F)F)c(F)cc3c2)CC1)C(F)(F)F` (stereo partly drawn) [Example 76, 7-(Difluoromethoxy)-6-fluoro-N-(trans-4-(3,3,3-trifluoro-2-hydroxy-2-methylpropoxy)cyclohexyl)quinoline-3-carboxamide]: the IC50 under setting [1] was 10 to 79.4 nM.

For `C[C@H](N[C@H]1CC[C@H](NC(=O)c2cnc3cc(OC(F)F)c(Br)cc3c2)CC1)C(F)F` [Example 159, 6-Bromo-7-(difluoromethoxy)-N-(trans-4-(((S)-1,1-difluoropropan-2-yl)amino)cyclohexyl)quinoline-3-carboxamide], the IC50 under setting [1] is under 10 nM.

Regarding `O=C(N[C@H]1CCNC1=O)c1cnc2cc(C3CC3)c(F)cc2c1` [Example 41, (S)-7-cyclopropyl-6-fluoro-N-(2-oxopyrrolidin-3-yl)quinoline-3-carboxamide hydrochloride], the IC50 under setting [1] was 10 to 79.4 nM.

Regarding `CC(C)(O)C(=O)N1CCC(NC(=O)c2cnc3cc(OC(F)F)c(Cl)cc3c2)CC1` [Example 220, 6-Chloro-7-(difluoromethoxy)-N-(1-(2-hydroxy-2-methylpropanoyl)piperidin-4-yl)quinoline-3-carboxamide], the IC50 under setting [1] was under 10 nM.

Take `Cn1nnnc1N1CCC(NC(=O)c2cnc3cc(C4CC4)c(C#N)cc3c2)CC1` [Example 24, 6-Cyano-7-cyclopropyl-N-(1-(1-methyl-1H-tetrazol-5-yl)piperidin-4-yl)quinoline-3-carboxamide]: under setting [1], the IC50 is 10 to 79.4 nM.

As to `COc1cc2ncc(C(=O)NC3CCN(c4nnnn4C)CC3)cc2cc1C` [Example 29, 7-Methoxy-6-methyl-N-(1-(1-methyl-1H-tetrazol-5-yl)piperidin-4-yl)quinoline-3-carboxamide], the IC50 under setting [1] was 10 to 79.4 nM.

On to `CC(C)(O)C(=O)N1CC(NC(=O)c2cnc3cc(OC(F)F)c(Cl)cc3c2)C1` [Example 221, 6-Chloro-7-(difluoromethoxy)-N-(1-(2-hydroxy-2-methylpropanoyl)azetidin-3-yl)quinoline-3-carboxamide], for which the IC50 under setting [1] is 100 to 1000 nM.

For the molecule `O=C1CC(NC(=O)c2cnc3cc(C4CC4)c(Cl)cc3c2)c2ccccc2N1` (centres unmarked) [Example 37, 6-Chloro-7-cyclopropyl-N-(2-oxo-1,2,3,4-tetrahydroquinolin-4-yl)quinoline-3-carboxamide], under setting [1], the IC50 is under 10 nM.

Turning to `Cc1cc2cc(C(=O)N[C@H]3CC[C@H](C(C)(C)O)CC3)cnc2c(Cl)c1OC(F)F` [Example 228, 8-Chloro-7-(difluoromethoxy)-N-((trans)-4-(2-hydroxypropan-2-yl)cyclohexyl)-6-methylquinoline-3-carboxamide], the IC50 under setting [1] was 10 to 79.4 nM.

With `NCCCOC[C@H]1CC[C@H](NC(=O)c2cnc3cc(OC(F)F)ccc3c2)CC1` [Example 23, N-(trans-4-((3-Aminopropoxy)methyl)cyclohexyl)-7-(difluoromethoxy)quinoline-3-carboxamide], the IC50 under setting [1] is 10 to 79.4 nM.

For `COc1ccc2cc(C(=O)N[C@H]3CC[C@H](C(C)(C)O)CC3)cnc2c1F` [Example 202, 8-Fluoro-N-(trans-4-(2-hydroxypropan-2-yl)cyclohexyl)-7-methoxyquinoline-3-carboxamide], the IC50 under setting [1] was 10 to 79.4 nM.

In the case of `CS(=O)(=O)N[C@H]1CC[C@H](NC(=O)c2cnc3cc(OC(F)F)c(F)cc3c2)CC1` [Example 56, 7-(Difluoromethoxy)-6-fluoro-N-(trans-4-(methylsulfonamido)cyclohexyl)quinoline-3-carboxamide], the IC50 under setting [1] is 10 to 79.4 nM.

In the case of `C[C@@H](N[C@H]1CC[C@H](NC(=O)c2cnc3cc(OC(F)F)c(F)cc3c2)CC1)C(F)(F)F` [Example 62, 7-(Difluoromethoxy)-6-fluoro-N-(trans-4-(((R)-1,1,1-trifluoropropan-2-yl)amino)cyclohexyl)quinoline-3-carboxamide], the IC50 under setting [1] was 10 to 79.4 nM.

`O=C(N[C@H]1CONC1=O)c1cnc2cc(C3CC3)c(Cl)cc2c1` [Example 38, (S)-6-Chloro-7-cyclopropyl-N-(3-oxoisoxazolidin-4-yl)quinoline-3-carboxamide]: under setting [1], the IC50 is under 10 nM.

As to `COc1ccc2cc(C(=O)NC3CCN(c4nnnn4C)CC3)cnc2c1OC` [Example 33, 7,8-Dimethoxy-N-(1-(1-methyl-1H-tetrazol-5-yl)piperidin-4-yl)quinoline-3-carboxamide], the IC50 under setting [1] is 10 to 79.4 nM.

Turning to `C[C@H](N[C@H]1CC[C@H](NC(=O)c2cnc3cc(OC(F)F)c(Cl)cc3c2)CC1)C(F)F` [Example 130, 6-Chloro-7-(difluoromethoxy)-N-(trans-4-(((S)-1,1-difluoropropan-2-yl)amino)cyclohexyl)quinoline-3-carboxamide], the IC50 under setting [1] was under 10 nM.
